Source: ChEMBL document CHEMBL5096179, “Small molecule approaches to treat autoimmune and inflammatory diseases (Part II): Nucleic acid sensing antagonists and inhibitors” (Bioorg Med Chem Lett, 2021)

Columns and labels:
[1] = target: NACHT, LRR and PYD domains-containing protein 3 (Mus musculus, UniProt Q8R4B8); experiment: Inhibition of NLRP3 inflammasome activation in LPS-primed C57BL/6 mouse bone marrow derived macrophages incubated for 30 mins in presence of ATP by immunoblotting analysis; format: cell-based, Macrophage
NACHT, LRR and PYD domains-containing protein 3, sequence (Q8R4B8 whole entry, the tested form may be a part): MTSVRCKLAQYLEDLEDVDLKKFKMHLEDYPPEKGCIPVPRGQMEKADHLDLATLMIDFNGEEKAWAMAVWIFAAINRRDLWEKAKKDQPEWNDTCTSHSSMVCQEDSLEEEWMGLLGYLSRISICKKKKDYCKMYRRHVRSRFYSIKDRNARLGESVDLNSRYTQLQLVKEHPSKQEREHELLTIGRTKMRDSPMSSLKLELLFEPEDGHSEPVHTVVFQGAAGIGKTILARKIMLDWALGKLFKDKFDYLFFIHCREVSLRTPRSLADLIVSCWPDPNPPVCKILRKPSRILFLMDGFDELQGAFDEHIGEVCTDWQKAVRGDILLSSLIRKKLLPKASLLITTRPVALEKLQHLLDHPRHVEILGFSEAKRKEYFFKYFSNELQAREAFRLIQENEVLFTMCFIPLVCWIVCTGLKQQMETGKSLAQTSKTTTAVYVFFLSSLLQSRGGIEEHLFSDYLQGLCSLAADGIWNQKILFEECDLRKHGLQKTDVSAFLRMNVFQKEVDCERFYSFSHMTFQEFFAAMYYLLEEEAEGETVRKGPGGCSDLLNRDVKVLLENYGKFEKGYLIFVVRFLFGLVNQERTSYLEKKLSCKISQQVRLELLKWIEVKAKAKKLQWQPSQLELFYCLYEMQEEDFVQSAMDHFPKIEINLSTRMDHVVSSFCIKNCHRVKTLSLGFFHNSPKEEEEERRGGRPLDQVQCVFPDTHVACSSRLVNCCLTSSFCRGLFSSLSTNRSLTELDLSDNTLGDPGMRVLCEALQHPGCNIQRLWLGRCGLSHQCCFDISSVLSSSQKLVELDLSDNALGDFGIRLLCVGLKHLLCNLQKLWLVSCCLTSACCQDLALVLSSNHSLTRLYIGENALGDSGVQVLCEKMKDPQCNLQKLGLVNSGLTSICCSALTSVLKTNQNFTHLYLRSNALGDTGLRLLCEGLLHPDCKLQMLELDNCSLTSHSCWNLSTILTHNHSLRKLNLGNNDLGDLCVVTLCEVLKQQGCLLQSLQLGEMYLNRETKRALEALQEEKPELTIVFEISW

RAW264.7 = experiment: Cytotoxicity against mouse RAW264.7 cells assessed as cell growth inhibition measured after 24 hrs by Celltiter-Glo assay; format: functional, cell-based; conditions: RAW264.7, 24 h
Toll-like receptor 8 [2] = target: T1, Toll-like receptor 8 (Homo sapiens, UniProt Q9NR97); experiment: Antagonist activity at R848 stimulated TRL8 overexpressed in HEK293 cells measured after 20 to 24 hrs by SEAP reporter assay; format: cell-based
T1 sequence (Q9NR97 whole entry): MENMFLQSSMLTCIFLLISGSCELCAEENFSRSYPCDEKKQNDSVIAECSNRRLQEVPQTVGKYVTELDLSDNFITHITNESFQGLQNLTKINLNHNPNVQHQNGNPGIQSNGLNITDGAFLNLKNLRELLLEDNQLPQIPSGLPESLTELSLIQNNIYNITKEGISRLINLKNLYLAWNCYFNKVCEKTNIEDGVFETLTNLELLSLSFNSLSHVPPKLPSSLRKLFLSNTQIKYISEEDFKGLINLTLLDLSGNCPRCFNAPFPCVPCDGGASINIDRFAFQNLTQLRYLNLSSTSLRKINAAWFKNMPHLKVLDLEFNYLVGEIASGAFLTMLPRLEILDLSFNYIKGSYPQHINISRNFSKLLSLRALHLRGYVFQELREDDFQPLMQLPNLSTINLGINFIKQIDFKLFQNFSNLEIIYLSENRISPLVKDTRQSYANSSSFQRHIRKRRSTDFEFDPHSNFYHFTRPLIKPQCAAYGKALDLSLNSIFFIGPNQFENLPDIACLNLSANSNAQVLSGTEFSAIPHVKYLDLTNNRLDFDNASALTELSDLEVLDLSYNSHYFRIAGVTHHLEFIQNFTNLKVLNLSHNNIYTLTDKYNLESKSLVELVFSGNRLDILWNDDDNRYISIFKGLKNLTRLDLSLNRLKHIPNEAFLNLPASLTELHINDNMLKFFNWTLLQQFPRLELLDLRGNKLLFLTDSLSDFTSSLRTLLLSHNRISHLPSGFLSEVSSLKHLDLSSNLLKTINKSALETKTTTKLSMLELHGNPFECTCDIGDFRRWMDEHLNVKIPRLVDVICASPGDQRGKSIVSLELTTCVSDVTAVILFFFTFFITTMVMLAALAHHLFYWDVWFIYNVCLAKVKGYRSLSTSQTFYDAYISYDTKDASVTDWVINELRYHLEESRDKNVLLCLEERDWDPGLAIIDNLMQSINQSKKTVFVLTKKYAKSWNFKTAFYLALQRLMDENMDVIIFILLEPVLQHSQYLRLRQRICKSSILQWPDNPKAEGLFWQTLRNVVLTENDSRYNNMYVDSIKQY

Toll-like receptor 9 [3] = target: T2, Toll-like receptor 9 (Homo sapiens, UniProt Q9NR96); experiment: Antagonist activity at TLR9 (unknown origin)
T2 sequence (Q9NR96 whole entry): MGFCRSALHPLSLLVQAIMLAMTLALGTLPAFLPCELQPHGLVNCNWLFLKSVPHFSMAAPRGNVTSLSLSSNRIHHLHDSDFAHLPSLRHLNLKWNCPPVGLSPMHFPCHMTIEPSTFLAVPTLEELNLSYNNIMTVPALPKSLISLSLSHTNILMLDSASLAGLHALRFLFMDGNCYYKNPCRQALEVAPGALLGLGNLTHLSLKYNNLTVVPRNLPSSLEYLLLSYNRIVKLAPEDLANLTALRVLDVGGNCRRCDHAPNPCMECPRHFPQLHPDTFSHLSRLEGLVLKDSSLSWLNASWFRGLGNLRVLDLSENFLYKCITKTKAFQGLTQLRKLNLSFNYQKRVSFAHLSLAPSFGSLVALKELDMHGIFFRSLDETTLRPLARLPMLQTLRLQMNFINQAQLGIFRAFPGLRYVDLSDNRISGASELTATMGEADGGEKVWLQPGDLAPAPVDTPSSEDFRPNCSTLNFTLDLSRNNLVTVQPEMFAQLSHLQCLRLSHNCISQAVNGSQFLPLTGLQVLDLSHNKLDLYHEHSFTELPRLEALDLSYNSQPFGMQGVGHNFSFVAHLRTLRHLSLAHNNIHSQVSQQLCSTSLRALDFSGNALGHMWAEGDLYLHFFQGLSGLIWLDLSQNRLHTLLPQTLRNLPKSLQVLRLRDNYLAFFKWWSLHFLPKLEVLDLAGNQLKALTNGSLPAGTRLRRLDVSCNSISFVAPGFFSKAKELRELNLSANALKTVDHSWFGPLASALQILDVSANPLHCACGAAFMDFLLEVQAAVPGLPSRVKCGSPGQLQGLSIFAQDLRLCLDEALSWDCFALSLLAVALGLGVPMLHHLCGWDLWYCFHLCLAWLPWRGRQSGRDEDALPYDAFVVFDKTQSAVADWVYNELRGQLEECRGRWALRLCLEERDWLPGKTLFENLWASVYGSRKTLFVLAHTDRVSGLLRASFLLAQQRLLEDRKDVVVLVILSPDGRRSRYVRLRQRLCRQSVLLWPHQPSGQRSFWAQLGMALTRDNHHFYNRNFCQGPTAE

Cyclic GMP-AMP synthase [4] = target: T3, Cyclic GMP-AMP synthase (Homo sapiens, UniProt Q8N884); experiment: Inhibition of N-terminal 6XHis-SUMO2 fused full length human cGAS (1 to 522 residues) expressed in […] incubated for 20 mins in presence of ATP by luminescence based analysis
T3 sequence (Q8N884 whole entry, the tested form may be a part): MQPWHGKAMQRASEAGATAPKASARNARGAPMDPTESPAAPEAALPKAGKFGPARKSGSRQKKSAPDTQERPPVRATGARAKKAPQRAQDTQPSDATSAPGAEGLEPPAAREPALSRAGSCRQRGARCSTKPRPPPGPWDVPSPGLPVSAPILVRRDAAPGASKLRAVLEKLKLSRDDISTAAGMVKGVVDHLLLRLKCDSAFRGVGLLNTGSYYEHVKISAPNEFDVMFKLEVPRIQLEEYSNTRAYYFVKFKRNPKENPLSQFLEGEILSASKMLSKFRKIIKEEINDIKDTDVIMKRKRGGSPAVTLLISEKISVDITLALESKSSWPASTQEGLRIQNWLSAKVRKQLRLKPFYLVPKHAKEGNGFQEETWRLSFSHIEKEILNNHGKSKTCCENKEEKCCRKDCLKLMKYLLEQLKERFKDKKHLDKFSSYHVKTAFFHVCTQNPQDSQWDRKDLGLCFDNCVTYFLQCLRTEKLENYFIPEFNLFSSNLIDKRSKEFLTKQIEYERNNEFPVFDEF

THP-1 [5] = experiment: Cytotoxicity against human THP-1 cells assessed as cell growth inhibition; format: functional, cell-based
THP-1 [6] = experiment: Cytotoxicity against human THP-1 cells assessed as cell growth inhibition measured after 24 hrs by Annexin-V staining based flow cytometry analysis; format: functional; conditions: THP-1, 24 h
Toll-like receptor 7 [7] = target: T4, Toll-like receptor 7 (Homo sapiens, UniProt Q9NYK1); experiment: Antagonist activity at TLR7 in human PBMC incubated for 3 hrs by TR-FRET assay; format: cell-based
T4 sequence (Q9NYK1 whole entry): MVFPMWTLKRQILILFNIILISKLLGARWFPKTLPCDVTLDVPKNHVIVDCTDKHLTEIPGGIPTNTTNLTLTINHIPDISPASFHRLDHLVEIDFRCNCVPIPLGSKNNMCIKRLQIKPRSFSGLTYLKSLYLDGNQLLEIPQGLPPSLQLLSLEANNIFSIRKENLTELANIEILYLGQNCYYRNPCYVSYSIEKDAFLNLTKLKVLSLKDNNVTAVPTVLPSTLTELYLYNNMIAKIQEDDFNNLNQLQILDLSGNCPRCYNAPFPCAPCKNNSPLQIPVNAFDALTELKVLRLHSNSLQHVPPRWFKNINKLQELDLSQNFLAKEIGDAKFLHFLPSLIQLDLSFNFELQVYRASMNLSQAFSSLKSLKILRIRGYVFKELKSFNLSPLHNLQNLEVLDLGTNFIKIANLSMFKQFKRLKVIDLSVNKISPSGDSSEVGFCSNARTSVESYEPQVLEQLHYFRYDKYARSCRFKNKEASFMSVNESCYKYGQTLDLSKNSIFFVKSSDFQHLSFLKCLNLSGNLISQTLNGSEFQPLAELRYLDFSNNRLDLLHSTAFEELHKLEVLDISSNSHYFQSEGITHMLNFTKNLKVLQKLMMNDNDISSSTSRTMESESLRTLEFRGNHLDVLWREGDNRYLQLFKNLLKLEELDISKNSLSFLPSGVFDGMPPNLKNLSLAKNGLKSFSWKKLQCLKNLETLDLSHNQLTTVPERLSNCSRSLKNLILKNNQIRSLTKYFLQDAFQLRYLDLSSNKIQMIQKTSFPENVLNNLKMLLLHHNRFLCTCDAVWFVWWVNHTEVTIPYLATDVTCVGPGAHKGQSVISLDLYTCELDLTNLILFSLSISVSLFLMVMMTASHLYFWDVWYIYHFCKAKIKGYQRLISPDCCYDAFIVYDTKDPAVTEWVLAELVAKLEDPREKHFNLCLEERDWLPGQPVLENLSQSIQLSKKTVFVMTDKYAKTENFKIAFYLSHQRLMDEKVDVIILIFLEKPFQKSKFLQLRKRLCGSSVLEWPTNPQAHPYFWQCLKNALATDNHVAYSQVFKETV

[8] = Cytotoxicity against human THP1-Dual KO-IFNAR2 cells assessed as cell growth inhibition; format: functional, cell-based
Cyclic GMP-AMP synthase [9] = target: T3, Cyclic GMP-AMP synthase; experiment: Inhibition of cGAS expressed in human THP-1 cells assessed as reduction of IFN-beta expression by ELISA assay; format: cell-based
Cyclic GMP-AMP synthase [10] = target: T3, Cyclic GMP-AMP synthase; experiment: Inhibition of full-length human cGAS by fluorescence polarization
[11] = target: Stimulator of interferon genes protein (Homo sapiens, UniProt Q86WV6); experiment: Binding affinity to wild-type human STING CTD (149 to 379 residues) expressed in Escherichia coli BL21 (DE3) assessed as dissociation constant by isothermal titration calorimetry assay
Stimulator of interferon genes protein, sequence (Q86WV6 whole entry, the tested form may be a part): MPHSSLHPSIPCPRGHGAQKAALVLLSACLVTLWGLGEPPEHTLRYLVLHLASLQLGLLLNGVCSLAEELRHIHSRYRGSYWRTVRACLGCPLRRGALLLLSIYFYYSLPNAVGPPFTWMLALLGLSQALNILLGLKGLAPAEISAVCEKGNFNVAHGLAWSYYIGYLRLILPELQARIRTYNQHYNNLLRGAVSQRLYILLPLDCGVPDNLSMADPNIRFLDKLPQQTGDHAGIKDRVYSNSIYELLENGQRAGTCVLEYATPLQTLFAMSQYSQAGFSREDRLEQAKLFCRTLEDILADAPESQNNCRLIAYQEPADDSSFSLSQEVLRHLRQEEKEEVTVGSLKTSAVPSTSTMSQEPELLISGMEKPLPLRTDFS

IMR-90 = experiment: Cytotoxicity against human IMR-90 cells assessed as inhibition of IFN-beta production by MTS assay; format: functional, cell-based
THP-1 [12] = experiment: Cytotoxicity against human THP-1 cells assessed as cell growth inhibition measured after 24 hrs by Celltiter-Glo assay; format: functional, cell-based; conditions: THP-1, 24 h
Toll-like receptor 8 [13] = target: T1, Toll-like receptor 8; experiment: Antagonist activity at R848 stimulated TRL8 in HEK-Blue hTLR8 cells assessed as inhibition of NF kappa B/Ap-1 activation measured after 20 hrs by SEAP reporter assay; format: cell-based
Toll-like receptor 9 [14] = target: T2, Toll-like receptor 9; experiment: Antagonist activity at R848 stimulated TRL9 in HEK-Blue hTLR9 cells assessed as inhibition of NF kappa B/Ap-1 activation measured after 20 hrs by SEAP reporter assay; format: cell-based
Toll-like receptor 7 [15] = target: T4, Toll-like receptor 7; experiment: Antagonist activity at R848 stimulated TRL7 in HEK-Blue hTLR7 cells assessed as inhibition of NF kappa B/Ap-1 activation measured after 20 hrs by SEAP reporter assay; format: cell-based
[16] = Inhibition of MCP-1 secretion in mouse Trex1-knockout bone marrow-derived macrophages incubated for 24 hrs by celltiter-glo assay; format: functional, cell-based; conditions: BMDM
Cyclic GMP-AMP synthase [17] = target: T3, Cyclic GMP-AMP synthase; experiment: Antagonist activity at N-terminal 6XHis tagged human cGAS (155 to 522 residues) expressed in Escherichia coli BL21 DE3 Rosetta 2 in presence of ATP by luciferase based assay
[18] = Inhibition of RANTES secretion in mouse Trex1-knockout bone marrow-derived macrophages incubated for 24 hrs by celltiter-glo assay; format: functional, cell-based; conditions: BMDM

SMILES: COc1ccc(/C=C/C(=O)Nc2ccccc2C(=O)O)cc1OC
- IC50 [1]: 25 µM

SMILES: Nc1ccc(-c2cc(Cl)c(Cl)c3[nH]c4c(c23)CN(C(=O)CO)CC4)cn1
- IC50 (RAW264.7): < 1 µM

SMILES: Cc1cccc(-c2ccnc3c(C(N)=O)cnn23)c1
- IC50 (Toll-like receptor 8 [2]): 0.067 µM

SMILES: CNCc1ccc(C(=O)Nc2nc(N3CCN(C4CCCC4)CC3)c3ncn(CCCN4CCCC4)c3n2)cc1
- IC50 (Toll-like receptor 9 [3]): 0.005 µM

SMILES: O=C(O)c1cccc(NC(=O)c2n[nH]c(-n3cnnc3)n2)c1
- IC50 (Cyclic GMP-AMP synthase [4]): 13.1 µM

SMILES: COC(=O)[C@H](Cc1ccccc1)Nc1nc(NCc2nc3cc(F)ccc3[nH]2)nc(Nc2cccc(CN3CCN(C(=O)c4nccnc4O)CC3)c2)n1
- IC50 (THP-1 [5]): 20 µM

SMILES: COc1ccc2nc3cc(N)ccc3c(N(C)CCCN(C)c3ccncc3)c2c1
- IC50 (THP-1 [6]): 14 µM

SMILES: CCN(C)CC(=O)NC12CCC(Cn3nc(C)c4c3CCN(c3cc(C)nc5c3cnn5C)C4)(CC1)CC2
- IC50 (Toll-like receptor 7 [7]): < 0.0005 µM

SMILES: O=C(Nc1c[nH]c2cc(F)c(F)cc12)c1ncn(Cc2ccc(C(F)(F)F)cc2)n1
- IC50 [8]: 0.04 µM

SMILES: O=C(O)c1n[nH]c(-n2cnnc2)n1
- IC50 (Cyclic GMP-AMP synthase [4]): 29.9 µM

SMILES: Cc1nc(N2C[C@@H](CC(=O)Nc3ccncc3)C[C@H]2C(=O)O)c2oc3ccccc3c2n1
- IC50 (Cyclic GMP-AMP synthase [9]): 13 µM

SMILES: CCCCc1ccc(Nc2c(Nc3c[nH]c4ccccc34)c(=O)c2=O)cc1
- IC50 [8]: 0.2 µM

SMILES: CCCCc1ccc(S(N)(=O)=Nc2c[nH]c3ccccc23)cc1 (stereo not drawn)
- IC50 [8]: 0.04 µM

SMILES: Cc1[nH]n2c(-c3ccccc3)c(C#N)nc2c(=O)c1-c1cccc(Cl)c1
- IC50 (Cyclic GMP-AMP synthase [10]): < 1 µM
- IC50 (THP-1 [5]): < 10 µM

SMILES: CC[C@@H]1CC(=O)[C@@H]2[C@H](Cl)[C@H](Cl)CN2C(=O)[C@H](CC)NC(=O)C[C@H](c2ccccc2)NC(=O)[C@H](CO)NC1=O
- Kd [11]: 0.053 µM
- IC50 (IMR-90): 10.8 µM

SMILES: O=C(Nc1cc(-c2ccccc2)ccn1)c1[nH]ncc1[N+](=O)[O-]
- IC50 (THP-1 [12]): 2.63 µM

SMILES: Cc1cc(N2CCOC3(CN(C[C@H]4CN(c5ccc(C#N)c6ncccc56)C[C@@H](C)O4)C3)C2)cc(C)n1
- IC50 (Toll-like receptor 8 [13]): < 0.003 µM
- IC50 (Toll-like receptor 9 [14]): < 0.032 µM
- IC50 (Toll-like receptor 7 [15]): < 0.003 µM

SMILES: COC12CNCC1CN(c1ccc3c(c1)CN1[C@H](C)CN(c4ccc(C#N)c5ncccc45)C[C@H]31)C2 (stereo partly drawn)
- IC50 (Toll-like receptor 8 [13]): < 0.003 µM
- IC50 (Toll-like receptor 9 [14]): < 0.032 µM
- IC50 (Toll-like receptor 7 [15]): < 0.003 µM

SMILES: COc1cccc2oc(-c3c(C#N)[nH]c4c(-c5ccccc5)c(C(F)(F)F)nn4c3=O)nc12
- IC50 [16]: 6.97 µM
- IC50 (Cyclic GMP-AMP synthase [17]): < 20 µM
- IC50 [18]: 1.25 µM

SMILES: CCCCc1ccc(NC(=O)Nc2c[nH]c3ncc(F)cc23)cc1
- IC50 [8]: 0.04 µM
